# Key:
# [1] = tested on: naive central trigeminovascular neurons; conditions: in vivo; cited from earlier work
# [2] = tested on: naive high-threshold (HT) trigeminovascular neurons in the spinal trigeminal nucleus; assay: Single-unit recording of spontaneous and evoked activity of naive HT trigeminovascular neurons; assay type: in vivo, rat; conditions: 30 mg/kg IV
# Description: (§1) Experiments were approved by the Beth Israel Deaconess Medical Center and Harvard Medical School standing committees on animal care, and in accordance with the U. S. National Institutes of Health Guide for the Care and Use of Laboratory Animals. Male and female Sprague-Dawley rats (250-350 g) were anesthetized with urethane (0.9-1.2 g/kg i.p.). They were fitted with an intra-tracheal tube to allow artificial ventilation (0.1 L/min of O2), and an intra-femoral-vein cannula for later infusion of drugs. Rats were placed in a stereotaxic apparatus, and core temperature was kept at 37° C. using a heating blanket. End-tidal CC was continuously monitored and kept within physiological range (3.5-4.5 pCC). Once stabilized, rats were paralyzed with rocuronium bromide (10 mg/ml, 1 ml/hr continuous intravenous infusion) and ventilated. For stimulation of the cranial dura later in the experiment, a 5×5-mm opening was carefully carved in the parietal and occipital bones in front and behind the lambda suture, directly above the left transverse sinus. The exposed dura was kept moist using a modified synthetic interstitial fluid (135 mM NaCl, 5 mM KCl, 1 mM MgCh, 5 mM CaCh, 10 mM glucose and 10 mM Hepes, pH 7.2). For single-unit recording in the spinal trigeminal nucleus, a segment of the spinal cord between the obex and C2 was uncovered from overlying tissues, stripped of the dura mater, and kept moist with mineral oil.
# (§2) To record neuronal activity, a tungsten microelectrode (impedance 3-4 MO) was lowered repeatedly into the spinal trigeminal nucleus (STN) in search of central trigeminovascular neurons receiving convergent input from the dura and facial skin. Trigeminovascular neurons were first identified based on their responses to electrical stimulation of the dura. […] Dural receptive fields were mapped by indenting the dura (with the 4.19 g VFH monofilament) at points separated by 1 mm mediolaterally and rostrocaudally. Points at which dural indentation produced a response in >50% of the trials were considered inside the neurons receptive field. Cutaneous receptive fields were mapped by applying innocuous and noxious mechanical stimulation to all facial skin areas and the cornea. An area was considered outside the receptive field if no stimulus produced a response in >50% of the trials. Responses to mechanical stimulation of the skin were determined by applying brief (10 s) innocuous and noxious stimuli to the most sensitive portion of the cutaneous receptive field. Innocuous stimuli consisted of slowly passing a soft bristled brush across the cutaneous receptive field (one 5-s brush stroke from caudal to rostral and one 5-s brush stroke from rostral to caudal) and pressure applied with a loose arterial clip. Noxious stimuli consisted of pinch with a strong arterial clip (Palecek et al, 1992, J. Neurophysiol. 67: 1562-1573; Dado et al, 1994, J. Neurophysiol. 71:981-1002; Burstein et al., 1998, J. Neurophysiol. 79:964-982). More intense or prolonged stimuli were not used to avoid inducing prolonged changes in spontaneous neuronal discharge or response properties. Responses to mechanical stimulation of the cornea consisted of gentle and slow brushing strokes with a thin paintbrush (about 10 hair-follicles). Two classes of neurons were thus identified: wide-dynamic-range (WDR) neurons (incrementally responsive to brush, pressure and pinch), and high-threshold (HT) neurons (unresponsive to brush). Real-time waveform discriminator was used to create and store a template for the action potential evoked in the neuron under study by electrical pulses on the dura; spikes of activity matching the template waveform were acquired and analyzed online and offline using Spike 2 software (CED, Cambridge, UK). Induction and recording of cortical spreading depression.
# (§3) Cortical spreading depression (CSD) was induced mechanically by inserting a glass micropipette (tip diameter 25 μm) about 1 mm into the visual cortex for 10 sec. […]
# [3] = tested on: naive wide-dynamic-range (WDR) trigeminovascular neurons in the spinal trigeminal nucleus; assay: Single-unit recording of spontaneous and evoked activity of naive WDR trigeminovascular neurons; assay type: in vivo, rat; conditions: 30 mg/kg IV
# Description: as §1, with “For single-unit recording in the spinal trigeminal nucleus, a segment of the spinal cord between the obex and C2 was uncovered from overlying tissues, stripped of the dura mater, and kept moist with mineral oil.” left out
# To record neuronal activity, a tungsten microelectrode (impedance 3-4 MO) was lowered repeatedly into the spinal trigeminal nucleus (STN) in search of central trigeminovascular neurons receiving convergent input from the dura and facial skin. […] Responses to mechanical stimulation of the skin were determined by applying brief (10 s) innocuous and noxious stimuli to the most sensitive portion of the cutaneous receptive field. […] Real-time waveform discriminator was used to create and store a template for the action potential evoked in the neuron under study by electrical pulses on the dura; spikes of activity matching the template waveform were acquired and analyzed online and offline using Spike 2 software (CED, Cambridge, UK). […]
# [4] = tested on: high-threshold (HT) trigeminovascular neurons; assay: Activation and sensitization of HT trigeminovascular neurons by cortical spreading depression (CSD); assay type: in vivo, rat; conditions: 30 mg/kg IV; for mean firing rate of HT neurons before CSD: before CSD (4 hours post-treatment)
# Description: as §1, §2, §3
# [5] = tested on: wide-dynamic-range (WDR) trigeminovascular neurons; assay: Activation of WDR trigeminovascular neurons by cortical spreading depression (CSD); assay type: in vivo, rat; conditions: male and female rats, 30 mg/kg IV
# Description: Experiments were approved by the Beth Israel Deaconess Medical Center and Harvard Medical School standing committees on animal care, and in accordance with the U. S. National Institutes of Health Guide for the Care and Use of Laboratory Animals. Male and female Sprague-Dawley rats (250-350 g) were anesthetized with urethane (0.9-1.2 g/kg i.p.). They were fitted with an intra-tracheal tube to allow artificial ventilation (0.1 L/min of O2), and an intra-femoral-vein cannula for later infusion of drugs. Rats were placed in a stereotaxic apparatus, and core temperature was kept at 37° C. using a heating blanket. End-tidal CC was continuously monitored and kept within physiological range (3.5-4.5 pCC). Once stabilized, rats were paralyzed with rocuronium bromide (10 mg/ml, 1 ml/hr continuous intravenous infusion) and ventilated. […]
# To record neuronal activity, a tungsten microelectrode (impedance 3-4 MO) was lowered repeatedly into the spinal trigeminal nucleus (STN) in search of central trigeminovascular neurons receiving convergent input from the dura and facial skin. […] Responses to mechanical stimulation of the skin were determined by applying brief (10 s) innocuous and noxious stimuli to the most sensitive portion of the cutaneous receptive field. […]
# meningeal Aδ-fibers = conditions: in vivo; cited from earlier work
# [6] = female rats, 2 hours after CSD, 6 hours after administration
# [7] = male and female rats, 2 hours after CSD, 6 hours after administration
# [8] = male rats, 2 hours after CSD, 6 hours after administration
compound,measurement,setting,value
NCCCC[C@H](NC(=O)[C@@H](Cc1cc(Br)c(O)c(Br)c1)NC(=O)N1CCC(N2Cc3ccccc3NC2=O)CC1)C(=O)N1CCN(c2ccncc2)CC1 [BIBN4096BS],effect on naive central trigeminovascular neurons responses to electrical stimulation of the superior sagittal sinus and microiontophoretic L-glutamate,[1],inhibits
fremanezumab [CGRP-mAb],decrease in firing of HT neurons to mechanical stimulation of the dura,[2]; female rats,61%
same,effect on spontaneous activity of HT neurons,[2]; female rats,did not reduce the spontaneous activity of HT or WDR neurons
same,effect on sensitivity of HT neurons to mechanical stimulation of the dura,[2]; male and female rats,reduced the sensitivity to mechanical stimulation of the dura in the HT
same,"effect on responses of HT neurons to innocuous (brush, pressure) or noxious (pinch) mechanical stimulation of the skin or the cornea",[2]; male or female rats,did not alter the responses of HT or WDR neurons
same,decrease in firing of HT neurons to mechanical stimulation of the dura,[2]; male rats,75%
same,effect on spontaneous activity of HT neurons,[2]; male rats,reduced the spontaneous activity of the HT
same,decrease in spontaneous neuronal firing of HT neurons,"[2]; male rats, within 3-4 hrs",90%
same,effect on spontaneous activity of WDR neurons,[3]; female rats,did not reduce the spontaneous activity of HT or WDR neurons
same,effect on sensitivity of WDR neurons to mechanical stimulation of the dura,[3]; male and female rats,but not the WDR neurons
same,"effect on responses of WDR neurons to innocuous (brush, pressure) or noxious (pinch) mechanical stimulation of the skin or the cornea",[3]; male or female rats,did not alter the responses of HT or WDR neurons
same,HT neurons with expanded dural receptive fields after CSD,[4]; female rats,0/6
same,HT neurons with expanded facial receptive fields after CSD,[4]; female rats,0/6
same,change of HT response to brushing the cornea after CSD,[4]; female rats,remained unchanged
same,HT neuronal responses to dural indentation with VFH after CSD,[4]; [6],8.1±6.4 spikes/sec
same,mean firing rate of HT neurons after CSD,[4]; [6],5.0±3.4 spikes/sec
same,HT neuronal responses to dural indentation with VFH before CSD,"[4]; female rats, before CSD",10.5±1.6 spikes/sec
same,mean firing rate of HT neurons before CSD,[4]; female rats,3.3±1.7 spikes/sec
same,"difference in proportion of HT neurons activated by CSD, CGRP-mAb vs isotype-conAb",[4]; male and female rats,86%
same,change of HT neuronal responses to brush after CSD,[4]; [7],remained unchanged
same,change of HT neuronal responses to pinch after CSD,[4]; [7],remained unchanged
same,change of HT neuronal responses to pressure after CSD,[4]; [7],remained unchanged
same,HT neurons activated by CSD (case-by-case analysis),"[4]; male and female rats, activated/tested neurons",2/14
same,HT neurons with expanded dural receptive fields after CSD,[4]; male rats,2/8
same,HT neurons with expanded facial receptive fields after CSD,[4]; male rats,2/8
same,HT neuronal responses to dural indentation with VFH after CSD,[4]; [8],1.9±1.5 spikes/sec
same,mean firing rate of HT neurons after CSD,[4]; [8],1.9±1.5 spikes/sec
same,HT responses to corneal stimulation after CSD,"[4]; male rats, after CSD",9. ±1.8 spikes/sec
same,HT neuronal responses to dural indentation with VFH before CSD,"[4]; male rats, before CSD",1.8±0.6 spikes/sec
same,HT responses to corneal stimulation before CSD,"[4]; male rats, before CSD",10.8±3.3 spikes/sec
same,mean firing rate of HT neurons before CSD,[4]; male rats,1.2±0.6 spikes/sec
same,"difference in proportion of WDR neurons activated by CSD, CGRP-mAb vs isotype-conAb",[5],2%
same,WDR neurons activated by CSD (case-by-case analysis),[5]; activated/tested neurons,5/13
same,effect on meningeal Aδ-fibers,meningeal Aδ-fibers,inhibits
